According to the supplement of paper PMC10307832:

Tests used:
Assay in all cases: relative viability (nuclei count vs DMSO), 5 days (fraction); higher = more cells survive
[1] = compound: CNC(=O)c1cc(Oc2ccc(NC(=O)Nc3ccc(Cl)c(C(F)(F)F)c3)cc2)ccn1 [Sorafenib] + CC(=O)c1c(C)c2cnc(Nc3ccc(N4CCNCC4)cn3)nc2n(C2CCCC2)c1=O [Palbociclib] (partner 0.5 µM)
Procedure, shortened: (§1)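 One day after seeding in 1536-well plates, lung cancer cell lines were dosed by pin tool. Dosing was either single-drug or a fixed anchor-drug dose plus five library-drug doses (not always all listed) in √10 steps. After 5 days, nuclei were stained in one fix-and-stain step and counted on 4× images, and relative viability is the nuclei count of treated wells over that of vehicle wells, given as the median of duplicate plates.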

[2] = compound: CNC(=O)c1cc(Oc2ccc(NC(=O)Nc3ccc(Cl)c(C(F)(F)F)c3)cc2)ccn1 [Sorafenib] + COc1cc2c(Oc3ccc(NC(=O)C4(C(=O)Nc5ccc(F)cc5)CC4)cc3F)ccnc2cc1OCCCN1CCOCC1 [Foretinib] (partner 0.25 µM)
Procedure, shortened: as §1

[3] = compound: CNC(=O)c1cc(Oc2ccc(NC(=O)Nc3ccc(Cl)c(C(F)(F)F)c3)cc2)ccn1 [Sorafenib] + C[C@@H](Oc1cc(-c2cnn(C3CCNCC3)c2)cnc1N)c1c(Cl)ccc(F)c1Cl [Crizotinib] (partner 1 µM)
Procedure, shortened: as §1

[4] = compound: CNC(=O)c1cc(Oc2ccc(NC(=O)Nc3ccc(Cl)c(C(F)(F)F)c3)cc2)ccn1 [Sorafenib] + CC(=O)Nc1cccc(-n2c(=O)n(C3CC3)c(=O)c3c(Nc4ccc(I)cc4F)n(C)c(=O)c(C)c32)c1 [Trametinib] (partner 0.02 µM)
Procedure, shortened: as §1

[5] = compound: CNC(=O)c1cc(Oc2ccc(NC(=O)Nc3ccc(Cl)c(C(F)(F)F)c3)cc2)ccn1 [Sorafenib] + CS(=O)(=O)N1CCN(Cc2cc3nc(-c4cccc5[nH]ncc45)nc(N4CCOCC4)c3s2)CC1 [Pictilisib] (partner 1 µM)
Procedure, shortened: as §1

| Cell Line | relative viability ([1]; first compound 0.08 µM) | relative viability ([1]; first compound 0.253 µM) | relative viability ([1]; first compound 2.53 µM) | relative viability ([1]; first compound 8 µM) | relative viability ([2]; first compound 0.08 µM) | relative viability ([2]; first compound 0.253 µM) | relative viability ([2]; first compound 2.53 µM) | relative viability ([2]; first compound 8 µM) | relative viability ([3]; first compound 0.08 µM) | relative viability ([3]; first compound 0.253 µM) | relative viability ([3]; first compound 2.53 µM) | relative viability ([3]; first compound 8 µM) | relative viability ([4]; first compound 0.08 µM) | relative viability ([4]; first compound 0.253 µM) | relative viability ([4]; first compound 2.53 µM) | relative viability ([4]; first compound 8 µM) | relative viability ([5]; first compound 0.08 µM) | relative viability ([5]; first compound 0.253 µM) | relative viability ([5]; first compound 2.53 µM) | relative viability ([5]; first compound 8 µM) |
| --- | --- | --- | --- | --- | --- | --- | --- | --- | --- | --- | --- | --- | --- | --- | --- | --- | --- | --- | --- | --- |
| SK-MES-1 | 0.301 | 0.292 | 0.292 | 0.289 | 1.07 | 0.896 | 0.903 | 0.818 | 1.06 | 0.94 | 0.92 | 0.865 | 0.627 | 0.614 | 0.315 | 0.231 | 0.451 | 0.439 | 0.447 | 0.377 |
| EPLC-272H | 0.332 | 0.338 | 0.486 | 0.295 | 0.702 | 0.716 | 0.788 | 0.508 |  | 0.819 |  | 0.855 | 0.298 | 0.274 | 0.27 | 0.205 | 0.393 | 0.286 | 0.45 | 0.299 |
| CAL-12T | 0.512 | 0.396 | 0.489 | 0.247 | 1.39 | 1.05 | 1.03 | 0.868 | 0.751 | 0.581 | 0.524 | 0.381 | 0.5 | 0.312 | 0.339 | 0.213 | 0.6 | 0.396 | 0.575 | 0.396 |
| LCLC-97TM1 | 0.251 | 0.195 | 0.182 | 0.184 | 0.959 | 0.837 | 0.897 | 0.926 | 0.326 | 0.358 | 0.364 | 0.121 | 0.198 | 0.199 | 0.133 | 0.103 | 0.152 | 0.207 | 0.211 | 0.16 |
| NCI-H650 | 0.435 | 0.303 | 0.268 | 0.355 | 1.02 | 0.863 | 0.942 | 0.857 | 0.777 | 0.563 | 0.735 | 0.595 | 0.989 | 0.937 | 0.866 | 0.578 | 0.911 | 0.751 | 0.696 | 0.746 |
| NCI-H1975 | 0.712 | 0.49 | 0.656 | 0.311 |  | 0.958 | 0.994 | 0.649 | 0.988 | 1.03 | 0.985 | 0.466 | 0.526 | 0.32 | 0.291 | 0.242 | 0.312 | 0.308 | 0.376 | 0.286 |
| RERF-LC-KJ | 1.05 | 0.961 | 1.03 | 0.759 | 0.969 | 0.829 | 0.882 | 0.849 | 0.885 | 0.798 | 0.856 | 0.768 | 0.753 |  | 0.86 | 0.65 | 0.604 | 0.578 | 0.612 | 0.438 |
| NCI-H1437 | 0.324 | 0.256 | 0.304 | 0.246 | 1.26 | 1.17 | 1.13 | 0.742 | 0.941 | 0.827 | 0.844 | 0.496 | 0.59 | 0.389 | 0.533 | 0.342 | 0.483 | 0.393 | 0.364 | 0.238 |
| HCC-827 | 0.572 | 0.478 | 0.492 | 0.514 | 1.1 | 0.981 | 1.02 | 1.02 |  | 0.918 | 0.94 | 0.853 | 0.547 | 0.582 | 0.457 | 0.422 | 1.19 | 0.897 | 0.861 | 0.727 |
| NCI-H2170 | 0.379 | 0.327 | 0.401 | 0.325 | 1.02 | 0.994 | 0.986 | 0.967 | 1.34 | 1.08 | 1.14 | 1.05 | 0.896 | 0.805 | 0.99 | 0.804 | 0.323 | 0.348 | 0.369 | 0.255 |
| BEN | 0.48 | 0.513 | 0.413 | 0.516 | 0.755 | 0.518 | 0.811 | 0.526 | 1 | 0.844 | 0.862 | 0.68 | 1.11 | 0.911 | 0.945 | 0.913 | 0.649 | 0.512 | 0.531 | 0.413 |
| A-427 | 0.531 | 0.553 | 0.589 | 0.474 | 1.24 | 0.989 | 0.94 | 0.754 | 0.895 | 0.855 | 0.826 | 0.369 | 0.731 | 0.754 | 0.551 | 0.383 | 0.771 | 0.669 | 0.768 | 0.376 |
| NCI-H727 | 0.688 | 0.616 | 0.681 | 0.569 | 0.936 | 1.11 | 0.909 | 0.739 | 0.979 | 0.797 | 0.706 | 0.357 | 0.416 | 0.351 | 0.391 | 0.367 | 0.332 | 0.337 | 0.257 | 0.311 |
| LC-2-ad | 0.54 | 0.456 | 0.447 | 0.393 | 0.923 | 0.989 | 0.985 | 0.744 | 0.496 | 0.447 | 0.511 | 0.421 | 0.934 | 0.822 | 0.732 | 0.396 | 0.432 | 0.369 | 0.32 | 0.193 |
| NCI-H23 | 0.522 | 0.503 | 0.514 | 0.389 | 1.03 | 0.977 | 0.833 | 0.871 | 0.566 | 0.427 | 0.689 | 0.427 | 0.406 | 0.397 | 0.288 | 0.225 | 0.474 | 0.445 | 0.39 | 0.362 |
| NCI-H2405 | 0.553 | 0.517 | 0.561 | 0.477 | 1.14 | 1.04 | 1.07 | 0.92 | 0.884 | 0.767 |  | 0.76 | 0.784 | 0.461 | 0.413 | 0.324 | 0.539 | 0.39 | 0.363 | 0.293 |
| NCI-H1993 | 0.662 | 0.656 | 0.751 | 0.565 | 0.778 | 0.746 | 0.86 | 0.543 | 0.988 | 1 | 1.08 | 0.851 | 0.515 | 0.521 | 0.529 | 0.506 | 0.833 | 0.788 | 0.707 | 0.677 |
| NCI-H1355 | 0.421 | 0.41 | 0.431 | 0.39 | 1.08 | 0.971 | 0.937 |  | 1.16 | 1.04 | 1.04 | 1.11 | 0.493 | 0.419 | 0.42 | 0.264 | 0.444 | 0.465 | 0.45 | 0.346 |
| NCI-H2009 | 0.275 | 0.115 | 0.21 | 0.198 | 1.27 | 1.18 | 1.09 | 0.916 | 0.972 | 0.921 | 0.915 | 0.603 | 0.339 | 0.282 | 0.204 | 0.159 | 0.866 | 0.621 | 0.752 | 0.265 |
| NCI-H2085 | 0.442 | 0.491 | 0.51 | 0.497 | 0.948 | 0.856 | 0.864 | 0.874 | 0.938 | 1.01 | 0.965 | 0.717 | 0.643 | 0.464 | 0.43 | 0.391 | 0.541 | 0.444 | 0.549 | 0.481 |
| HCC-78 | 0.468 | 0.471 | 0.529 | 0.476 | 0.632 | 0.537 | 0.801 | 0.905 | 0.394 | 0.361 | 0.483 | 0.507 | 0.807 | 0.646 | 0.897 | 0.523 | 0.254 | 0.229 | 0.268 | 0.217 |
| NCI-H3122 | 0.204 | 0.2 | 0.177 | 0.18 | 0.985 | 0.993 | 1.01 | 0.618 | 0.29 | 0.317 | 0.326 | 0.293 | 0.234 | 0.208 | 0.176 | 0.129 | 0.762 | 0.671 | 0.604 | 0.234 |
| EMC-BAC-2 | 0.519 | 0.439 | 0.467 | 0.477 | 1.02 | 0.819 | 1 | 0.658 | 0.648 | 0.728 | 0.762 | 0.809 | 0.86 |  | 0.7 | 0.44 | 0.54 | 0.6 | 0.549 | 0.472 |
| ChaGo-K-1 | 0.908 | 0.894 |  | 0.679 | 0.961 | 0.965 | 0.9 |  | 1.22 | 1.09 | 1.07 |  | 0.884 | 0.855 | 0.886 | 0.708 | 0.939 | 0.592 | 0.794 | 0.399 |
| NCI-H2347 | 0.432 | 0.464 | 0.434 | 0.43 | 1.41 | 0.673 | 0.953 | 0.775 | 0.796 | 0.559 | 0.491 | 0.525 | 0.3 | 0.308 | 0.266 | 0.314 | 0.956 | 0.479 | 0.641 | 0.493 |
| NCI-H1915 | 0.54 | 0.574 | 0.581 | 0.413 | 1.08 | 0.969 | 1.03 | 1.09 | 0.892 | 0.786 | 0.829 | 0.907 | 0.322 | 0.289 | 0.204 | 0.125 | 0.875 | 0.911 | 0.958 | 0.866 |
| HCC-15 | 0.77 | 0.619 | 0.708 | 0.48 | 0.999 | 0.933 | 1 | 0.869 | 0.836 | 0.774 | 0.813 | 0.566 | 0.411 | 0.354 | 0.396 | 0.3 | 0.729 | 0.683 |  | 0.602 |
